# Experiments:
# [1] = target: Cholinesterase (Homo sapiens, UniProt P06276); experiment: Inhibition of human serum BChE using butyrylthiocholine iodide as substrate pre-incubated for 20 mins before substrate addition and measured for 180 secs by spectrophotometry based Ellman's method
# [2] = target: Acetylcholinesterase (Homo sapiens, UniProt P22303); experiment: Inhibition of recombinant human AChE using acetylthiocholine iodide as substrate pre-incubated for 20 mins before substrate addition and measured for 180 secs by spectrophotometry based Ellman's method
# Acetylcholinesterase (Homo sapiens, UniProt P22303), sequence (P22303 whole entry): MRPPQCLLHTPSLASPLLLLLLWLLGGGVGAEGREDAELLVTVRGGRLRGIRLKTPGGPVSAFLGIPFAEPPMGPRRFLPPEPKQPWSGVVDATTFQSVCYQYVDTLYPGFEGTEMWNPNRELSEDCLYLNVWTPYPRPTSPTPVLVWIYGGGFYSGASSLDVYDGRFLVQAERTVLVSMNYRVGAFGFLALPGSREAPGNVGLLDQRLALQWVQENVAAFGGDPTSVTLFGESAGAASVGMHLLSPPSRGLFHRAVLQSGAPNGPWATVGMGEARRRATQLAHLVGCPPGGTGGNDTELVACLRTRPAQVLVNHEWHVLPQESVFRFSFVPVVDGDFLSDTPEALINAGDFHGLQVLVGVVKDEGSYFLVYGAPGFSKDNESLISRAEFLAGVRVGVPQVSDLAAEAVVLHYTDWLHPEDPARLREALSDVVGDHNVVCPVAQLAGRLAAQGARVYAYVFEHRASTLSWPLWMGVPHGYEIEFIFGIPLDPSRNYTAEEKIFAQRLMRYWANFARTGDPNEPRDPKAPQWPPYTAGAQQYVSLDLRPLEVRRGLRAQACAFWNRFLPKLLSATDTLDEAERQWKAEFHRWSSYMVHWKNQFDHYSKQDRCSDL
# [3] = target: Acetylcholinesterase (Electrophorus electricus, UniProt O42275); experiment: Inhibition of electric eel AChE using acetylthiocholine iodide as substrate incubated for 10 mins by spectrophotometry based Ellman's method
# Acetylcholinesterase (Electrophorus electricus, UniProt O42275), sequence (O42275 whole entry): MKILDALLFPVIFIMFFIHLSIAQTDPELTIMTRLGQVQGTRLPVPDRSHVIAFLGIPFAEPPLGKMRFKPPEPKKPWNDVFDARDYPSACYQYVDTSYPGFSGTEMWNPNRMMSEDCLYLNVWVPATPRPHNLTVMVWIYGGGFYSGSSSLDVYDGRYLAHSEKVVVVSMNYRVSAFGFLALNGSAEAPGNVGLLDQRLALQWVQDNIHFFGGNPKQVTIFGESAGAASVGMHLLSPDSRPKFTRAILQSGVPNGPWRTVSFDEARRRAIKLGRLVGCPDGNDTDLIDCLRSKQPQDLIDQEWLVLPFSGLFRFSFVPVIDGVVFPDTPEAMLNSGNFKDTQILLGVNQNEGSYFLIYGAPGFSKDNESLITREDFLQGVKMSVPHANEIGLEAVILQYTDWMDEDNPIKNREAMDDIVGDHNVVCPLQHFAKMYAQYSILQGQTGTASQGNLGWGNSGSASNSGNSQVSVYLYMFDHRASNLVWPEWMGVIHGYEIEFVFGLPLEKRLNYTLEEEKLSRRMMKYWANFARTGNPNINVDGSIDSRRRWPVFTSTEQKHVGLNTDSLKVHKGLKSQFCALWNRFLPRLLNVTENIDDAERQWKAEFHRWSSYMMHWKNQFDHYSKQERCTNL
# [4] = tested on: HepG2; experiment: cells; conditions: Homo sapiens, HepG2, 72 h
# Description: Cytotoxicity against human HepG2 cell assessed as reduction in cell viability incubated for 72 hrs by MTT assay
# [5] = in vitro; conditions: human, HepG2 cells
# Description: Cytotoxicity against human HepG2 cell assessed as safe dose that maintains 100% cell viability incubated for 72 hrs by MTT assay
# [6] = in vitro; conditions: mouse, mouse neuronal cells
# Description: Toxicity in mouse neuronal cells assessed as reduction in cell viability incubated for 72 hrs by MTT assay
# [7] = in vitro; conditions: mouse, mouse neuronal cells; remark: listed apart in the source
# Description: Toxicity in mouse neuronal cells assessed as safe dose that maintains 100% cell viability incubated for 72 hrs by MTT assay
# [8] = in vitro; conditions: PAMPA, pH 7.4
# [9] = target: T1, Prostaglandin G/H synthase 1 (Ovis aries, UniProt P05979); experiment: Inhibition of ovine COX -1 by colorimetric inhibitor screening assay kit method
# T1 sequence (P05979 whole entry): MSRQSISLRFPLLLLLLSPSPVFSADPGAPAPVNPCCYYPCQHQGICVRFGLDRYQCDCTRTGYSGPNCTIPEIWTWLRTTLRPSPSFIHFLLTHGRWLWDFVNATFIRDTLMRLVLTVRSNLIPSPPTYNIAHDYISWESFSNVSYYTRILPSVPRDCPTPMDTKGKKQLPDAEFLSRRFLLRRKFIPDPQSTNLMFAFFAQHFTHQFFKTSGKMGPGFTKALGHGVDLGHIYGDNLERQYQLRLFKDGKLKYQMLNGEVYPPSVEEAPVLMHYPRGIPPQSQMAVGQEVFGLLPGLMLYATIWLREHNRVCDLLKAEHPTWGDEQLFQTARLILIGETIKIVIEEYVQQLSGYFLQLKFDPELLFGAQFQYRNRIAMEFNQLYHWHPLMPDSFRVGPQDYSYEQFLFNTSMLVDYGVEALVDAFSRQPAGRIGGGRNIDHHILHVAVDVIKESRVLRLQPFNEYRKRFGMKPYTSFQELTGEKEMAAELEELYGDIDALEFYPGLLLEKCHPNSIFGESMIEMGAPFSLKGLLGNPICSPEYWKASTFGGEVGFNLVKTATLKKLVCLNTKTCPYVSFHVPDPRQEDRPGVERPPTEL
# [10] = tested on: PC-12; experiment: Anti-inflammatory activity in lipopolysaccharide challenged rat PC12 cells assessed as decrease in TNFalpha production at 100 uM pre-incubated for 24 hrs before LPS challenge for 48 hrs by immunoblot analysis; assay type: functional
# [11] = tested on: PC-12; experiment: Anti-inflammatory activity in lipopolysaccharide challenged rat PC12 cells assessed as decrease in interleukin-1 beta production at 100 uM pre-incubated for 24 hrs before LPS challenge for 48 hrs by immunoblot analysis; assay type: functional
# [12] = tested on: PC-12; experiment: Cytotoxicity against rat PC12 cells assessed as reduction in cell viability up to 300 uM by MTS assay; assay type: cell-based
# [13] = Safety index, ratio of EC100 for test compound to EC100 for tacrine for cytotoxicity against human HepG2 cell assessed as safe dose that maintains 100% cell viability incubated for 72 hrs by MTT assay; assay type: cell-based; conditions: HepG2 cells
# Cholinesterase, sequence (P06276 whole entry): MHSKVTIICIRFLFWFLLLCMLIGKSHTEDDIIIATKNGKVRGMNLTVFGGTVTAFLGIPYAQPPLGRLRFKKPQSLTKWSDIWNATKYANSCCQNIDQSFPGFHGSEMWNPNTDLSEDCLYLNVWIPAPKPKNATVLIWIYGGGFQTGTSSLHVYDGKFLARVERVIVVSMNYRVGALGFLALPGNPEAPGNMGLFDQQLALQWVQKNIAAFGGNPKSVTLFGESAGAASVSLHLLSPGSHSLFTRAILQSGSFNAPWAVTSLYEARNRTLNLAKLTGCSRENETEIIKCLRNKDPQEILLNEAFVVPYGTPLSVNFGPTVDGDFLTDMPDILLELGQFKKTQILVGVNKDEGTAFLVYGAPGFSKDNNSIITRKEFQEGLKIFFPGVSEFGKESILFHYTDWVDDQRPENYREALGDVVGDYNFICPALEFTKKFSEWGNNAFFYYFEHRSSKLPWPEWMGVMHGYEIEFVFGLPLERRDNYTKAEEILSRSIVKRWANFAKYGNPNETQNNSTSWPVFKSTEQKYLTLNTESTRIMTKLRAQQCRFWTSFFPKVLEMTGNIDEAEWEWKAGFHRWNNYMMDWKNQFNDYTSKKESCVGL
SMILES,IC50 [1] [µM],IC50 [2] [µM],IC50 [3] [µM],IC50 [4] [µM],MNTC at 72 h [5] [µM],IC50 at 72 h [6] [µM],MNTC at 72 h [7] [nM],"Papp at 6 h, 50 µM [8] [×10⁻⁶ cm/s]",IC50 [9] [µM],inhibition at 100 µM [10] [%],inhibition at 100 µM [11] [%],Activity [12],selectivity ratio at 72 h [13]
O=[N+]([O-])c1cccc(-n2cc(COc3ccc(/C=N/Nc4c5c(nc6ccccc46)CCCC5)cc3)nn2)c1,0.0482,1.46,0.066,50.1,4.18,28,976,–,–,–,–,–,–
S=C(NNc1c2c(nc3ccccc13)CCCC2)Nc1ccc(Cl)cc1,0.328,0.786,3.83,21.9,1.97,7.1,2400,–,–,–,–,–,–
NS(=O)(=O)c1ccc(-n2cc(COc3ccc(/C=N/Nc4c5c(nc6ccccc46)CCCC5)cc3)nn2)cc1,0.0389,1.11,0.807,25.7,1.04,16.4,1580,–,–,–,–,–,–
S=C(NNc1c2c(nc3ccccc13)CCCC2)Nc1ccccc1,0.748,0.61,1.85,82.9,6.78,10.9,395,–,–,–,–,–,–
C(=N\Nc1c2c(nc3ccccc13)CCCC2)/c1ccc(OCc2cn(Cc3ccccc3)nn2)cc1,0.0361,1.05,0.547,33.4,1.2,5.71,2670,–,–,–,–,–,–
CNC(=C[N+](=O)[O-])NCCSCc1ccc(CN(C)C)o1 [RANITIDINE],–,–,–,–,–,–,–,0.04,–,–,–,–,–
C=CCNC(=S)NNc1c2c(nc3ccccc13)CCCC2,0.722,5.77,1.35,80,0.63,6.83,2770,–,–,–,–,–,–
Cl.Clc1ccc(-n2cc(COc3ccc(/C=N/Nc4c5c(nc6ccccc46)CCCC5)cc3)nn2)cc1,0.0678,7.03,4.38,178,70,8.28,3580,6.07,13.4,> 60,> 90,Non-Toxic,72
C#CCOc1ccc(/C=N/Nc2c3c(nc4ccccc24)CCCC3)cc1,0.11,2.73,0.438,46.1,2.73,8.79,4810,–,–,–,–,–,–
Cc1ccc(-n2cc(COc3ccc(/C=N/Nc4c5c(nc6ccccc46)CCCC5)cc3)nn2)cc1.Cl,0.0757,3.75,20.2,262,113,5.85,2580,5.5,10.9,> 60,> 90,Non-Toxic,116
COc1ccc(-n2cc(COc3ccc(/C=N/Nc4c5c(nc6ccccc46)CCCC5)cc3)nn2)cc1.Cl,0.0682,2.3,2.07,65.1,27.2,3.98,1450,6.35,12.2,> 60,> 90,30%,27
COc1ccc(NC(=S)NNc2c3c(nc4ccccc24)CCCC3)cc1,0.568,0.293,0.91,70.7,3.33,4.33,1380,–,–,–,–,–,–
Brc1ccc(-n2cc(COc3ccc(/C=N/Nc4c5c(nc6ccccc46)CCCC5)cc3)nn2)cc1.Cl,0.0926,12.8,18.1,96.7,47.9,18.6,1000,6.26,13.9,–,–,30%,–
NS(=O)(=O)c1cc2c(cc1Cl)N=CNS2(=O)=O [CHLOROTHIAZIDE],–,–,–,–,–,–,–,0.66,–,–,–,–,–
S=C(NNc1c2c(nc3ccccc13)CCCC2)Nc1ccc(Br)cc1,0.426,0.571,0.861,69.5,2.96,19.7,788,–,–,–,–,–,–
O=[N+]([O-])c1ccc(-n2cc(COc3ccc(/C=N/Nc4c5c(nc6ccccc46)CCCC5)cc3)nn2)cc1,0.0256,1.05,0.535,53.6,7.7,2.95,830,–,–,–,–,–,–
Cl.O=C(O)c1ccc(-n2cc(COc3ccc(/C=N/Nc4c5c(nc6ccccc46)CCCC5)cc3)nn2)cc1,0.304,4.03,1.32,97.9,43.1,3.71,162,1.77,–,–,–,–,43
NS(=O)(=O)c1ccc(NC(=S)NNc2c3c(nc4ccccc24)CCCC3)cc1,0.307,0.961,0.792,42.3,1.19,3.25,295,–,–,–,–,–,–
C(=N\Nc1c2c(nc3ccccc13)CCCC2)/c1ccc(OCc2cn(-c3ccccc3)nn2)cc1,0.054,0.9,0.917,28.4,3.1,34.5,1950,–,–,–,–,–,–

# From ChEMBL document CHEMBL4339188, “Tackling neuroinflammation and cholinergic deficit in Alzheimer's disease: Multi-target inhibitors of cholinesterases, cyclooxygenase-2 and 15-lipoxygenase” (Eur J Med Chem, 2019)
